The text on data set [1]: For the following, non-limiting, sparingly soluble drugs in water, the solubility in α-tocopherol and sesame oil are listed in Table 1:
Sesame oil was chosen as the reference, because it is a very commonly used and well tolerated vegetable oil. The solubilities in sesame oil and α-tocopherol were investigated by visual inspection of the saturation point.

The conditions of data set [2]: cited from earlier work.
The conditions of data set [3]: cited from earlier work. The source holds these as a separate data set.
Where [4] appears, read: solubility in sesame oil (reference).

The source of these data is patent publication US6193985A, “Tocopherol compositions for delivery of biologically active agents” (priority 1994, dated 2001).

Where two headings read alike, the source gives them in different places. A value given as a limit tells only on which side of the number the result lay.

Take `CCN(CC)C(=S)SSC(=S)N(CC)CC` [Disulfiram, disulfiram]: the “g drug in 100 g of α-tocopherol” value in data set [1] (solubility in α-tocopherol) was 5 g drug in 100 g.
With `CCCC1O[C@@H]2C[C@H]3[C@@H]4CCC5=CC(=O)C=C[C@]5(C)[C@H]4[C@@H](O)C[C@]3(C)[C@]2(C(=O)CO)O1` (stereo partly shown) [Budesonide, budesonide], in data set [1] (setting [4]), the “g drug in 100 g of sesame oil” value is less than 0.1 g drug in 100 g.
Take `CC(=O)[C@H]1CC[C@H]2[C@@H]3CCC4=CC(=O)CC[C@]4(C)[C@H]3CC[C@]12C` [Progesterone]: the “g drug in 100 g of α-tocopherol” value in data set [1] (solubility in α-tocopherol) was greater than 30 g drug in 100 g.
On to `Cc1ncc2n1-c1ccc(Cl)cc1C(c1ccccc1F)=NC2` [Midazolam, midazolam], for which the first-pass effect result in data set [2] (after oral administration) is “very high first-pass effect”. Further, the “g drug in 100 g of α-tocopherol” value in data set [1] (solubility in α-tocopherol) is greater than 13 g drug in 100 g.
`Clc1ccc(COC(Cn2ccnc2)c2ccc(Cl)cc2Cl)c(Cl)c1` (stereo not shown) [Miconazole, miconazole]: in data set [1] (solubility in α-tocopherol), the “g drug in 100 g of α-tocopherol” value is reported as 60 g drug in 100 g.
In the case of `C(=C\c1ccccc1)/CN1CCN(C(c2ccccc2)c2ccccc2)CC1` [Cinnarizine, cinnarizine], in data set [2] (if dissolved in a vehicle before administration), the oral bioavailability result was “higher oral bioavailability”. Further, the “solubility in water (in words)” value in data set [3] is “very low water solubility”. Moreover, in data set [1], the “g drug in 100 g of sesame oil” value is on record as 2-4 g drug in 100 g and the “g drug in 100 g of α-tocopherol” value is listed as 11-18 g drug in 100 g.
Turning to `Cc1ncc([N+](=O)[O-])n1CCOC(=O)c1ccccc1` [Metronidazole benzoate], in data set [1] (setting [4]), the “g drug in 100 g of sesame oil” value is recorded as less than 2 g drug in 100 g.
Turning to `CCN(CC)CCNC(=O)c1cc(Cl)c(N)cc1OC` [Metoclopramide], in data set [1], the “g drug in 100 g of sesame oil” value was less than 2 g drug in 100 g and the “g drug in 100 g of α-tocopherol” value was 2-4 g drug in 100 g.
